Reference: the supplement of paper PMC10307832

What was measured:
Assay in all cases: relative viability (nuclei count vs DMSO), 5 days (fraction); higher = more cells survive
[1] = compound: O=C(NC1CCNCC1)c1n[nH]cc1NC(=O)c1c(Cl)cccc1Cl [AT-7519] + CC(=O)c1c(C)c2cnc(Nc3ccc(N4CCNCC4)cn3)nc2n(C2CCCC2)c1=O [Palbociclib] (partner 0.5 µM)
In short: (§1)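 Cells from lung cancer lines were seeded into 1536-well plates and, one day later, dosed by pin tool. Treatments were either a single drug or a fixed dose of an anchor drug with five library-drug doses (not always all listed) in √10 steps. After 5 days, nuclei were stained in a one-step fixation (final 0.05% Triton X-100, 1% formaldehyde, 1 ug/ml Hoechst) and counted on 4× images, and relative viability is the treated-to-vehicle nuclei ratio, as the median of duplicate plates.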

[2] = compound: C1=CC2=C(C=C(C(=C2N=C1)O)N=NC3=CC4=C(C=C3)C=C(C=C4)S(=O)(=O)O)S(=O)(=O)O + CCNC(=O)c1noc(-c2cc(C(C)C)c(O)cc2O)c1-c1ccc(CN2CCOCC2)cc1 [Luminespib] (partner 0.01 µM)
In short: as §1

[3] = compound: C1=CC2=C(C=C(C(=C2N=C1)O)N=NC3=CC4=C(C=C3)C=C(C=C4)S(=O)(=O)O)S(=O)(=O)O + CC(=O)c1c(C)c2cnc(Nc3ccc(N4CCNCC4)cn3)nc2n(C2CCCC2)c1=O [Palbociclib] (partner 0.5 µM)
In short: as §1

[4] = compound: C1=CC2=C(C=C(C(=C2N=C1)O)N=NC3=CC4=C(C=C3)C=C(C=C4)S(=O)(=O)O)S(=O)(=O)O + NC(=O)Nc1cc(-c2cccc(F)c2)sc1C(=O)N[C@H]1CCCNC1 [AZD7762] (partner 0.2 µM)
In short: as §1

Cell Line | relative viability ([1]; first compound 0.01 µM) | relative viability ([1]; first compound 0.03162 µM) | relative viability ([1]; first compound 0.3162 µM) | relative viability ([1]; first compound 1 µM) | relative viability ([2]; first compound 0.08 µM) | relative viability ([2]; first compound 0.253 µM) | relative viability ([2]; first compound 0.8 µM) | relative viability ([2]; first compound 2.53 µM) | relative viability ([2]; first compound 8 µM) | relative viability ([3]; first compound 0.08 µM) | relative viability ([3]; first compound 0.253 µM) | relative viability ([3]; first compound 0.8 µM) | relative viability ([3]; first compound 2.53 µM) | relative viability ([3]; first compound 8 µM) | relative viability ([4]; first compound 0.08 µM) | relative viability ([4]; first compound 0.253 µM) | relative viability ([4]; first compound 0.8 µM) | relative viability ([4]; first compound 2.53 µM) | relative viability ([4]; first compound 8 µM)
NCI-H1651 | 0.517 | 0.504 | 0.547 | 0.534 | 1.25 | 0.869 | 0.877 | 0.86 | 0.836 | 0.522 | 0.502 | 0.511 | 0.55 | 0.499 | 0.501 | 0.49 | 0.474 | 0.489 | 0.437
HARA | 0.194 | – | 0.273 | 0.233 | 1.27 | 0.913 | 0.796 | 0.803 | 0.761 | 0.249 | 0.244 | 0.277 | 0.221 | 0.245 | 0.384 | 0.261 | 0.267 | 0.362 | 0.469
NCI-H1395 | 0.561 | 0.699 | 0.573 | 0.504 | 0.851 | 0.859 | 0.806 | 0.701 | 0.786 | 0.692 | 0.614 | 0.616 | 0.572 | 0.628 | 0.383 | 0.404 | 0.395 | 0.411 | 0.358
LU99A | 0.443 | 0.411 | 0.389 | 0.329 | 0.234 | 0.35 | 0.216 | 0.228 | 0.27 | 0.472 | 0.43 | 0.381 | 0.435 | 0.42 | 0.433 | 0.376 | 0.421 | 0.35 | 0.37
NCI-H1355 | 0.348 | 0.389 | 0.359 | 0.589 | 0.737 | 0.735 | 0.646 | 0.68 | 0.775 | 0.401 | 0.372 | 0.368 | 0.395 | 0.429 | 0.801 | 0.726 | 0.723 | 0.824 | 0.64
HCC-15 | 0.779 | 0.717 | 0.618 | 0.537 | 0.345 | 0.383 | 0.304 | 0.428 | 0.368 | 0.759 | 0.658 | 0.737 | 0.67 | 0.723 | 1.32 | 1.25 | 1.23 | 1.18 | 1.15
EKVX | 0.498 | 0.369 | 0.299 | 0.375 | 0.875 | 0.87 | 0.848 | 0.888 | 0.799 | 0.542 | 0.359 | 0.35 | 0.48 | 0.344 | 0.836 | 0.78 | 0.61 | 0.702 | 0.702
NCI-H2087 | 0.226 | 0.224 | 0.186 | 0.116 | 0.169 | 0.191 | 0.153 | 0.231 | 0.237 | 0.238 | 0.213 | 0.199 | 0.215 | 0.191 | 1.31 | 1.51 | 1.27 | 1.38 | 1.29
LK-2 | 0.783 | 0.968 | 0.675 | 0.547 | 0.156 | 0.292 | 0.181 | 0.231 | 0.179 | 0.768 | 0.529 | 0.626 | 0.77 | 0.721 | 0.549 | 0.345 | 0.369 | 0.452 | 0.285
NCI-H1437 | 0.282 | 0.319 | 0.295 | 0.251 | 1.21 | 1.11 | 1.13 | 1.16 | 0.571 | 0.356 | 0.321 | 0.308 | 0.3 | 0.352 | 1.11 | 1.11 | 1.1 | 1.2 | 1.08
ABC-1 | 0.778 | 0.702 | 0.549 | 0.442 | 0.609 | – | – | 0.521 | 0.623 | 0.756 | 0.647 | 0.659 | 0.91 | 0.761 | 0.741 | – | 0.831 | 0.691 | 0.667
NCI-H522 | 0.969 | 0.967 | 0.995 | 0.788 | 1.21 | 1.19 | 0.983 | 1.16 | 1.11 | 0.957 | 0.981 | 0.934 | 0.849 | 0.923 | 0.783 | 0.932 | 0.971 | 0.787 | 0.714
NCI-H838 | 0.233 | 0.21 | 0.194 | 0.1 | 0.294 | 0.281 | 0.267 | 0.24 | 0.279 | 0.254 | 0.216 | 0.227 | 0.249 | 0.26 | 1.01 | 0.882 | 0.89 | 0.965 | 0.882
SW 900 | 0.552 | 0.595 | 0.512 | 0.463 | 0.175 | 0.2 | 0.18 | 0.186 | 0.163 | 0.53 | 0.58 | 0.477 | 0.648 | 0.579 | 0.597 | 0.644 | 0.598 | 0.588 | 0.666
A-427 | 0.551 | 0.491 | 0.467 | 0.327 | 0.891 | 0.823 | 0.851 | 1.04 | 0.727 | 0.525 | 0.547 | 0.512 | 0.541 | 0.482 | 0.823 | 0.816 | 0.767 | 0.822 | 0.743
NCI-H1792 | – | – | 0.692 | 0.837 | 0.481 | 0.418 | 0.58 | 0.423 | 0.331 | 0.674 | 0.654 | 0.673 | 0.667 | 0.597 | 1 | 0.655 | 0.723 | 0.715 | 0.836
